Measurements taken from patent US10349656B2, “Difluoromethyl-nicotinic-indanyl carboxamides” (BAYER CROPSCIENCE AKTIENGESELLSCHAFT, priority 2014, dated 2019).
One block for each compound: values may come before it.

Assays:
[1] = Log P by HPLC on reversed phase columns (EEC directive 79/831 Annex V.A8), acidic range; assay type: physicochemical; settings: for chromatographic logP: LC-UV, acidic range, 0.1% formic acid in water and acetonitrile (gradient 10% to 95% acetonitrile)
Procedure: Measurement of Log P values was performed according to EEC directive 79/831 Annex V.A8 by HPLC (High Performance Liquid Chromatography) on reversed phase columns with the following method: ^[a] Log P value is determined by measurement of LC-UV, in an acidic range, with 0.1% formic acid in water and acetonitrile as eluent (linear gradient from 10% acetonitrile to 95% acetonitrile).
(§1) Calibration was done with straight-chain alkan2-ones (with 3 to 16 carbon atoms) with known Log P values (measurement of Log P values using retention times with linear interpolation between successive alka-nones). Lambda-max-values were determined using UV-spectra from 200 nm to 400 nm and the peak values of the chromatographic signals.
as §1, with “alkanones).” for “alka-nones).”

Botrytis cinerea = assay: In vivo preventive test on Botrytis cinerea (grey mould); settings: gherkin plants
Procedure: (§2) The active ingredients are made soluble and homogenized in a mixture of Dimethyl sulfoxide/Acetone//Tween® 80 and then diluted in water to the desired concentration.
(§3) The young plants of gherkin are treated by spraying the active ingredient prepared as described above. Control plants are treated only with an aqueous solution of Acetone/Dimethyl sulfoxide/Tween® 80.
After 24 hours, the plants are contaminated by spraying the leaves with an aqueous suspension of Botrytis cinerea spores. The contaminated gherkin plants are incubated for 4 to 5 days at 17° C. and at 90% relative humidity.
The test is evaluated 4 to 5 days after the inoculation. 0% means an efficacy which corresponds to that of the control plants while an efficacy of 100% means that no disease is observed.

Pyrenophora teres = assay: In vivo preventive test on Pyrenophora teres (net blotch on barley); settings: barley plants; for Efficacy: comparison table
Procedure: as §2
The young plants of barley are treated by spraying the active ingredient prepared as described above. Control plants are treated only with an aqueous solution of Acetone/Dimethyl sulfoxide/Tween® 80.
After 24 hours, the plants are contaminated by spraying the leaves with an aqueous suspension of Pyreoophora teres spores. The contaminated barley plants are incubated for 48 hours at 20° C. and at 100% relative humidity and then for 12 days at 20° C. and at 70-80% relative humidity.
The test is evaluated 14 days after the inoculation. 0% means an efficacy which corresponds to that of the control plants while an efficacy of 100% means that no disease is observed.

Septoria tritici = assay: In vivo preventive test on Septoria tritici (leaf spot on wheat), DMSO/acetone/Tween 80; settings: wheat plants; for Efficacy: dose 10 ppm, comparison table; for protection (in words): dose of 10 ppm of active ingredient
Procedure: as §2
The young plants of wheat are treated by spraying the active ingredient prepared as described above. Control plants are treated only with an aqueous solution of Acetone/Dimethyl sulfoxide/Tween® 80.
After 24 hours, the plants are contaminated by spraying the leaves with an aqueous suspension of Septoria tritici spores. The contaminated wheat plants are incubated for 72 hours at 18° C. and at 100% relative humidity and then for 21 days at 20° C. and at 90% relative humidity.
The test is evaluated 24 days after the inoculation. 0% means an efficacy which corresponds to that of the control plants while an efficacy of 100% means that no disease is observed.

Sphaerotheca fuliginea = assay: In vivo preventive test on Sphaerotheca fuliginea (powdery mildew on cucurbits); settings: gherkin plants; for Efficacy: dose 10 ppm, comparison table; for protection (in words): dose of 10 ppm of active ingredient
Procedure: as §2, §3
After 24 hours, the plants are contaminated by spraying the leaves with an aqueous suspension of Sphaerotheca fuliginea spores. The contaminated gherkin plants are incubated for 72 hours at 18° C. and at 100% relative humidity and then for 12 days at 20° C. and at 70-80% relative humidity.
The test is evaluated 15 days after the inoculation. 0% means an efficacy which corresponds to that of the control plants while an efficacy of 100% means that no disease is observed.

[2] = dose of 100 ppm of active ingredient
[3] = dose of 10 ppm of active ingredient

Log P[a] [1]: 4.27^[a]
SMILES: CC(C)CC1CC(C)(C)c2cccc(NC(=O)c3cccnc3C(F)F)c21 (racemic) [Example 10]

Log P[a] [1]: 4.27^[a]
SMILES: CC(C)CC1CC(C)(C)c2cccc(NC(=O)c3cccnc3C(F)F)c21 (single isomer, unassigned) [Example 11]

Log P[a] [1]: 3.87^[a]
SMILES: CCC1CC(C)(C)c2cccc(NC(=O)c3c(F)ccnc3C(F)F)c21 (racemic) [Example 14]

Log P[a] [1]: 3.87^[a]
SMILES: CC(C)C1CC(C)(C)c2cccc(NC(=O)c3cccnc3C(F)F)c21 (racemic) [Example 1]

SMILES: CCC1CC(C)(C)c2cccc(NC(=O)c3cccnc3C(F)F)c21 (single isomer, unassigned) [Example 3]
Log P[a] [1]: 3.62^[a]

Log P[a] [1]: 4.65^[a]
SMILES: CCCC1CC(C)(C)c2cccc(NC(=O)c3ccc(Cl)nc3C(F)F)c21 (racemic) [Example 8]

Log P[a] [1]: 3.96^[a]
SMILES: CCCC1CC(C)(C)c2cccc(NC(=O)c3cccnc3C(F)F)c21 (racemic) [Example 5]

Log P[a] [1]: 3.37^[a]
SMILES: CC(C)C1CC(C)(C)c2cccc(N)c21 (racemic) [Example III-01]

SMILES: CCC1CC(C)(C)c2cccc(N)c21 (stereo not drawn) [Example III-02, 3-ethyl-1,1-dimethylindan-4-amine]
chromatographic logP [1]: 2.86

Log P[a] [1]: 4.27^[a]
SMILES: CC(C)CC1CC(C)(C)c2cccc(NC(=O)c3cccnc3C(F)F)c21 (single isomer, unassigned) [Example 12]

SMILES: CCC1CC(C)(C)c2cccc(NC(=O)c3cccnc3C(F)F)c21 (single isomer, unassigned) [Example 4]
Log P[a] [1]: 3.62^[a]

Log P[a] [1]: 4.18^[a]
SMILES: CC(C)CC1CC(C)(C)c2cccc(N)c21 (racemic) [Example III-04]

Log P[a] [1]: 4.54^[a]
SMILES: CC(C)CC1CC(C)(C)c2cccc(NC(=O)c3c(F)ccnc3C(F)F)c21 (racemic) [Example 13]

Log P[a] [1]: 3.60^[a]
SMILES: CCCC1CC(C)(C)c2cccc(N)c21 (racemic) [Example III-03]

Log P[a] [1]: 3.96^[a]
SMILES: CCCC1CC(C)(C)c2cccc(NC(=O)c3cccnc3C(F)F)c21 (single isomer, unassigned) [Example 7]

Log P[a] [1]: 3.96^[a]
SMILES: CCCC1CC(C)(C)c2cccc(NC(=O)c3cccnc3C(F)F)c21 (single isomer, unassigned) [Example 6]

SMILES: CCC1CC(C)(C)c2cccc(NC(=O)c3cccnc3C(F)F)c21 (stereo not drawn) [Example 2, 2-(difluoromethyl)-N-(3-ethyl-1,1-dimethyl-2,3-dihydro-1H-inden-4-yl)nicotinamide]
chromatographic logP [1]: 3.62
Efficacy (Botrytis cinerea; dose 100 ppm, comparison table): 93%
protection (in words) (Botrytis cinerea; [2]): very good protection
Efficacy (Pyrenophora teres; dose 10 ppm): 64%
Efficacy (Pyrenophora teres; dose 100 ppm): 93%
protection (in words) (Pyrenophora teres; [3]): moderate protection
protection (in words) (Pyrenophora teres; [2]): very good protection
Efficacy (Septoria tritici): 97%
protection (in words) (Septoria tritici): very good protection
Efficacy (Sphaerotheca fuliginea): 100%
protection (in words) (Sphaerotheca fuliginea): total protection

Log P[a] [1]: 4.21^[a]
SMILES: CCCC1CC(C)(C)c2cccc(NC(=O)c3c(F)ccnc3C(F)F)c21 (racemic) [Example 15]

SMILES: CCC1CC(C)(C)c2cccc(NC(=O)c3cccnc3Cl)c21 (stereo not drawn) [2-chloro-N-(3-ethyl-1,1-dimethyl-2,3-dihydro-1H-inden-4-yl)nicotinamide, reference compound]
Efficacy (Pyrenophora teres; dose 10 ppm): 0%
Efficacy (Pyrenophora teres; dose 100 ppm): 71%
protection (in words) (Pyrenophora teres; [3]): no protection at all
protection (in words) (Pyrenophora teres; [2]): moderate protection
Efficacy (Septoria tritici): 50%
protection (in words) (Septoria tritici): moderate protection
Efficacy (Sphaerotheca fuliginea): 44%
protection (in words) (Sphaerotheca fuliginea): weak protection
